The values below come from the NIST ThermoML archive (doi:10.1021/je301029j).

For series [1] the following is noted: Crystal; DTA.
Series [2] is described as follows: Molar enthalpy of transition or fusion. Particulars: Crystal; DSC.

± gives the expanded uncertainty stated by the source.

For the molecule `O=P(CCCO)(CCCO)CCCO` [tris(3-hydroxypropyl)phosphine oxide], in series [1], the Normal melting temperature was 114.61 ± 0.63 °C. In addition, the “Molar enthalpy of transition or fusion” value in series [2] was 8.18 ± 0.177 kcal/mol.
